Test results: BigSolDB 2.1

CCC(CO)(CO)C(=O)O
solubility (mole fraction)
Details | in 1,4-dioxane | in MIBK | in cyclopentyl methyl ether | in ethyl acetate | in gamma-butyrolactone | in n-butyl acetate | in toluene
298.15 K | 0.122 | 0.0218 | 0.0121 | 0.0111 | 0.0688 | 0.0119 | 0.00039
303.15 K | 0.153 | 0.0297 | 0.013 | 0.0184 | 0.0859 | 0.0125 | 0.00056
308.15 K | 0.176 | 0.0362 | 0.0168 | 0.0228 | 0.105 | 0.0129 | 0.00073
313.15 K | 0.201 | 0.0433 | 0.0208 | 0.0281 | 0.136 | 0.0153 | 0.0008
318.15 K | 0.217 | 0.0523 | 0.0266 | 0.0338 | 0.151 | 0.0228 | 0.00087
323.15 K | 0.259 | 0.0575 | 0.032 | 0.0443 | 0.173 | 0.0317 | 0.00093
328.15 K | 0.324 | 0.07 | 0.0374 | 0.0539 | 0.212 | 0.0379 | 0.00093
333.15 K | – | 0.077 | 0.0425 | 0.0612 | 0.232 | 0.0477 | 0.00099
338.15 K | – | 0.0891 | 0.054 | 0.069 | 0.263 | 0.0619 | 0.00105
343.15 K | – | 0.11 | 0.0674 | – | – | 0.0768 | –
345.15 K | – | 0.121 | 0.0749 | – | – | 0.093 | –
348.15 K | – | 0.132 | 0.0917 | – | – | 0.111 | –
350.15 K | – | 0.156 | 0.107 | – | – | 0.132 | –
353.15 K | – | 0.184 | 0.133 | – | – | 0.169 | –
